Experimental data reported in PubChem BioAssay (NCI).
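Compound exposure: 48 hours, 5 concentrations, 96-well plates. TGI denotes the concentration required for complete inhibition of growth.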

Columns and labels:
Test in all cases: NCI anticancer screen, dose series, 48 h
DMS 114 small cell lung = test system: DMS 114 small cell lung
OVCAR-3 ovarian = test system: OVCAR-3 ovarian
NCI-H23 lung = test system: NCI-H23 lung
SK-MEL-2 melanoma = test system: SK-MEL-2 melanoma
M14 melanoma = test system: M14 melanoma
SK-MEL-5 melanoma = test system: SK-MEL-5 melanoma
ACHN renal = test system: ACHN renal
SF-268 CNS = test system: SF-268 CNS
RPMI-8226 leukemia = test system: RPMI-8226 leukemia
DMS 273 small cell lung = test system: DMS 273 small cell lung
KM20L2 colon = test system: KM20L2 colon
SF-539 CNS = test system: SF-539 CNS
UO-31 renal = test system: UO-31 renal
SK-MEL-28 melanoma = test system: SK-MEL-28 melanoma
SF-295 CNS = test system: SF-295 CNS
SN12C renal = test system: SN12C renal
KM12 colon = test system: KM12 colon
786-0 renal = test system: 786-0 renal
CCRF-CEM leukemia = test system: CCRF-CEM leukemia
RXF-631 renal = test system: RXF-631 renal
HL-60(TB) leukemia = test system: HL-60(TB) leukemia
NCI-H226 lung = test system: NCI-H226 lung
SNB-78 CNS = test system: SNB-78 CNS
SK-OV-3 ovarian = test system: SK-OV-3 ovarian
HOP-62 NSCLC = test system: HOP-62 NSCLC
SNB-75 CNS = test system: SNB-75 CNS
U251 CNS = test system: U251 CNS
MOLT-4 leukemia = test system: MOLT-4 leukemia
EKVX NSCLC = test system: EKVX NSCLC
SNB-19 CNS = test system: SNB-19 CNS
K-562 leukemia = test system: K-562 leukemia
OVCAR-4 ovarian = test system: OVCAR-4 ovarian
HT29 colon = test system: HT29 colon
HCT-116 colon = test system: HCT-116 colon
IGROV1 ovarian = test system: IGROV1 ovarian
NCI-H522 lung = test system: NCI-H522 lung
M19-MEL melanoma = test system: M19-MEL melanoma
COLO 205 colon = test system: COLO 205 colon
OVCAR-5 ovarian = test system: OVCAR-5 ovarian
HCT-15 colon = test system: HCT-15 colon
UACC-62 melanoma = test system: UACC-62 melanoma
TK-10 renal = test system: TK-10 renal
OVCAR-8 ovarian = test system: OVCAR-8 ovarian
HCC-2998 colon = test system: HCC-2998 colon
SW-620 colon = test system: SW-620 colon
LOX IMVI melanoma = test system: LOX IMVI melanoma
HOP-92 NSCLC = test system: HOP-92 NSCLC
XF 498 CNS = test system: XF 498 CNS
A498 renal = test system: A498 renal
RXF 393 renal = test system: RXF 393 renal
NCI-H460 lung = test system: NCI-H460 lung
DLD-1 colon = test system: DLD-1 colon
A549 NSCLC = test system: A549 NSCLC
UACC-257 melanoma = test system: UACC-257 melanoma
MALME-3M melanoma = test system: MALME-3M melanoma
HOP-18 NSCLC = test system: HOP-18 NSCLC
SR leukemia = test system: SR leukemia
LXFL 529 NSCLC = test system: LXFL 529 NSCLC

SMILES: CCSC(SCC)c1cc2c(cc1Br)OCO2
- TGI (DMS 114 small cell lung): 50.4 µM
- TGI (OVCAR-3 ovarian): 57.3 µM
- TGI (NCI-H23 lung): 88.9 µM
- TGI (SK-MEL-2 melanoma): 51.9 µM
- TGI (M14 melanoma): 56.2 µM
- TGI (SK-MEL-5 melanoma): 38.4 µM
- TGI (ACHN renal): > 100 µM
- TGI (SF-268 CNS): > 100 µM
- TGI (RPMI-8226 leukemia): 60.3 µM
- TGI (DMS 273 small cell lung): 20.1 µM
- TGI (KM20L2 colon): 64.7 µM
- TGI (SF-539 CNS): 35.5 µM
- TGI (UO-31 renal): 85.3 µM
- TGI (SK-MEL-28 melanoma): > 100 µM
- TGI (SF-295 CNS): 72.1 µM
- TGI (SN12C renal): > 100 µM
- TGI (KM12 colon): > 100 µM
- TGI (786-0 renal): > 100 µM
- TGI (CCRF-CEM leukemia): 62.4 µM
- TGI (RXF-631 renal): 73.7 µM
- TGI (HL-60(TB) leukemia): 38 µM
- TGI (NCI-H226 lung): 81.1 µM
- TGI (SNB-78 CNS): > 100 µM
- TGI (SK-OV-3 ovarian): 88.6 µM
- TGI (HOP-62 NSCLC): > 100 µM
- TGI (SNB-75 CNS): 62.9 µM
- TGI (U251 CNS): 32.9 µM
- TGI (MOLT-4 leukemia): 42.2 µM
- TGI (EKVX NSCLC): > 100 µM
- TGI (SNB-19 CNS): > 100 µM
- TGI (K-562 leukemia): 32.7 µM
- TGI (OVCAR-4 ovarian): > 100 µM
- TGI (HT29 colon): 44.8 µM
- TGI (HCT-116 colon): 82.6 µM
- TGI (IGROV1 ovarian): > 100 µM
- TGI (NCI-H522 lung): > 100 µM
- TGI (M19-MEL melanoma): > 100 µM
- TGI (COLO 205 colon): 59.3 µM
- TGI (OVCAR-5 ovarian): > 100 µM
- TGI (HCT-15 colon): > 100 µM
- TGI (UACC-62 melanoma): > 100 µM
- TGI (TK-10 renal): > 100 µM
- TGI (OVCAR-8 ovarian): > 100 µM
- TGI (HCC-2998 colon): 67.5 µM
- TGI (SW-620 colon): > 100 µM
- TGI (LOX IMVI melanoma): 38 µM
- TGI (HOP-92 NSCLC): 55.3 µM
- TGI (XF 498 CNS): 59.4 µM
- TGI (A498 renal): 86.7 µM
- TGI (RXF 393 renal): 89.3 µM
- TGI (NCI-H460 lung): 49.4 µM
- TGI (DLD-1 colon): > 100 µM
- TGI (A549 NSCLC): > 100 µM

SMILES: Cc1c(-c2ccccc2)c(=O)oc2ccc(Cl)cc12
- TGI (DMS 114 small cell lung): > 100 µM
- TGI (OVCAR-3 ovarian): > 100 µM
- TGI (NCI-H23 lung): > 100 µM
- TGI (SK-MEL-2 melanoma): > 100 µM
- TGI (M14 melanoma): > 100 µM
- TGI (SK-MEL-5 melanoma): > 100 µM
- TGI (SF-268 CNS): > 100 µM
- TGI (RPMI-8226 leukemia): > 100 µM
- TGI (DMS 273 small cell lung): > 100 µM
- TGI (SF-539 CNS): > 100 µM
- TGI (UACC-257 melanoma): > 100 µM
- TGI (UO-31 renal): > 100 µM
- TGI (SK-MEL-28 melanoma): > 100 µM
- TGI (SF-295 CNS): > 100 µM
- TGI (SN12C renal): > 100 µM
- TGI (MALME-3M melanoma): > 100 µM
- TGI (KM12 colon): > 100 µM
- TGI (786-0 renal): > 100 µM
- TGI (CCRF-CEM leukemia): > 100 µM
- TGI (HOP-18 NSCLC): > 100 µM
- TGI (SR leukemia): > 100 µM
- TGI (HL-60(TB) leukemia): > 100 µM
- TGI (NCI-H226 lung): > 100 µM
- TGI (SNB-78 CNS): > 100 µM
- TGI (LXFL 529 NSCLC): > 100 µM
- TGI (SK-OV-3 ovarian): > 100 µM
- TGI (HOP-62 NSCLC): > 100 µM
- TGI (SNB-75 CNS): 43.7 µM
- TGI (U251 CNS): > 100 µM
- TGI (MOLT-4 leukemia): > 100 µM
- TGI (EKVX NSCLC): > 100 µM
- TGI (SNB-19 CNS): > 100 µM
- TGI (K-562 leukemia): > 100 µM
- TGI (OVCAR-4 ovarian): > 100 µM
- TGI (HT29 colon): > 100 µM
- TGI (HCT-116 colon): > 100 µM
- TGI (IGROV1 ovarian): > 100 µM
- TGI (NCI-H522 lung): > 100 µM
- TGI (M19-MEL melanoma): > 100 µM
- TGI (COLO 205 colon): > 100 µM
- TGI (OVCAR-5 ovarian): > 100 µM
- TGI (HCT-15 colon): > 100 µM
- TGI (UACC-62 melanoma): > 100 µM
- TGI (TK-10 renal): > 100 µM
- TGI (OVCAR-8 ovarian): > 100 µM
- TGI (HCC-2998 colon): > 100 µM
- TGI (SW-620 colon): > 100 µM
- TGI (LOX IMVI melanoma): > 100 µM
- TGI (HOP-92 NSCLC): > 100 µM
- TGI (A498 renal): > 100 µM
- TGI (NCI-H460 lung): > 100 µM
- TGI (DLD-1 colon): > 100 µM
- TGI (A549 NSCLC): > 100 µM
